IC50 data for 1 compound are collected here from publication PMC10491774 (Cell Death & Disease, 2023).

A word on the IC50: it is the midpoint of a concentration-inhibition curve.

For the test, the target named is 6-phosphofructo-2-kinase/fructose-2,6-bisphosphatase 3 (PFKFB3) (Homo sapiens, UniProt Q16875). Description: ADP-Glo kinase assay with purified recombinant human PFKFB3; partial inhibition, only by the Ca2+-free form; counter assay done. The test is classed as biochemical.
Chain of 6-phosphofructo-2-kinase/fructose-2,6-bisphosphatase 3 (PFKFB3) (Q16875 whole entry): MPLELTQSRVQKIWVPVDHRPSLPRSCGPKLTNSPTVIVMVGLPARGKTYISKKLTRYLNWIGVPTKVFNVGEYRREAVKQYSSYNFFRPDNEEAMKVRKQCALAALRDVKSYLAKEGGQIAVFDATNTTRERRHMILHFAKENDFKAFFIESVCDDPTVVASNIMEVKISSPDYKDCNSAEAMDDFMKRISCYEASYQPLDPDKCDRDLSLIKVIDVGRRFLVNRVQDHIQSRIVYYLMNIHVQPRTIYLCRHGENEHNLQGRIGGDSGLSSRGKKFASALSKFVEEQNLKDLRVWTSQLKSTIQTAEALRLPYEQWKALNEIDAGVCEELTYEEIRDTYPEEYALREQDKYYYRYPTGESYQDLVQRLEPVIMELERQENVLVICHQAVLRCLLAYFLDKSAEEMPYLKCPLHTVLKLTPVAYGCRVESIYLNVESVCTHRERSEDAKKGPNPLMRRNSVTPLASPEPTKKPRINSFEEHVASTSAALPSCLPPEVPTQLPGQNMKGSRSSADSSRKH

Consider `O=C(O)CN(CC(=O)O)c1ccccc1OCCOc1ccccc1N(CC(=O)O)CC(=O)O` [BAPTA, 1,2-Bis-(o-Aminophenoxy)-ethane-N,N,N’,N’-tetraacetic acid], for which the IC50 worked out at 110 µM.
